# Experimental data: patent publication US20120010179A1, “Methods of using a thiazole derivative” (priority 2006, published 2012)
# Test system: patients with COPD
# Experiment: Pulmonary function tests (spirometry FEV1, FVC), tetomilast with inhaled albuterol, crossover study (Example 1)
# Type: in vivo, human
# Conditions: for Estimated Treatment Effect, change from baseline in FEV1 (tetomilast versus placebo) / Estimated Treatment Effect, change from baseline in FVC (tetomilast versus placebo) / LS Mean change from baseline in FEV1 (repeated measures ANOVA) / LS Mean change from baseline in FVC (repeated measures ANOVA) / Mean (SD) change from baseline in FEV1 / Mean (SD) change from baseline in FVC: Baseline (Day 0); for Estimated Treatment Effect, change from baseline in FEV1 (tetomilast versus placebo) / Estimated Treatment Effect, change from baseline in FVC (tetomilast versus placebo): both with inhaled albuterol; for LS Mean change from baseline in FEV1 (repeated measures ANOVA) / LS Mean change from baseline in FVC (repeated measures ANOVA) / Mean (SD) change from baseline in FEV1 / Mean (SD) change from baseline in FVC: tetomilast 50 mg QD + inhaled albuterol
# Procedure: Pulmonary function tests were conducted throughout the study to monitor the subjects' respiratory status. Flow volume curves were collected via spirometry. Combivent® (Boehringer Ingleheim Pharmaceuticals, Inc., Ridgefield Conn.), which was used for short-acting rescues as needed throughout the studies described below, was withheld for 6 hours prior to any spirometric testing. Spirometry testing was performed at screening, baseline (Day 0), and at specific times during the treatment period. Each subject could have up to 5 spirometric readings at any study time point. Spirometric readings were performed using equipment from the central provider, Quantum Research, Inc. (Louisville, Colo.). All spirometry readings were recorded and sent to Quantum Research, Inc. for analysis
# For the spirometric readings, the best effort was reported as follows. The highest acceptable forced expiratory volume in one second (FEV1) value was selected as the “best” of the given test session. If two or more FEV1 values were tied as highest, the sum of FEV1 and forced vital capacity (FVC) for those efforts was used. If both conditions were equal between the two efforts, the values reported were taken from the effort that occurred first, chronologically, based on date and time of the effort.
# This study was a multicenter, randomized, double-blind, placebo-controlled, crossover, multiple dose, outpatient study in 27 patients with COPD. All subjects underwent a 28-day washout from inhaled corticosteroids and/or long-acting bronchodilators and/or continuous oxygen therapy (≧16 hours per day) and a 7-day washout from oral beta2-agonists and/or oral theophylline salts prior to baseline. Randomized subjects received an 8-day administration of oral placebo or tetomilast 50 mg oral dose (2×25 mg tablets) once daily (QD). On study Day 8, four consecutive doses of inhaled albuterol (90 μg albuterol base per puff) were given via a metered dose inhaler (MDI) and holding chamber (Ventolin®, GlaxoSmithKline, Research Triangle Park, N.C.), one dose every 30 minutes over the course of 90 minutes at doses of 90 μg+90 μg+180 μg+360 μg for a total dose of 720 μg (albuterol base) or 8 puffs.
# Subjects entered a 7-day washout period (study days 9 through 15) and were then crossed over to the alternate treatment arm (placebo or tetomilast 50 mg oral dose). On study [0105] Day 23, the inhaled albuterol multiple dosing was repeated.
# On Days 1-6 and 17-21, subjects were instructed to take their oral study medication (placebo or tetomilast 50 mg) QD with 8 ounces of water immediately before breakfast. Subjects assigned to the placebo arm received two placebo tablets QD. On Days 7, 8, 16, 22, and 23, subjects took their oral medication (placebo or tetomilast 50 mg) at the clinic in the presence of the study staff.
# Combivent® inhalation aerosol use was allowed for short-acting rescue as needed throughout the study except on study days where PK samples were collected, on days when the multiple doses of inhaled albuterol were administered in the clinic, and/or on days when spirometry testing was performed. On all study days where PK samples were collected, Combivent® was withheld 6 hours prior to the PK draw. Additionally, on study Days 8 and 23 (when the multiple doses of inhaled albuterol were administered in the clinic), Combivent® was withheld 6 hours prior to PK assessment and throughout the duration of the clinic visit. Combivent® was withheld for six hours prior to spirometry testing. The recommended dose of Combivent® Inhalation Aerosol is two inhalations four times a day. In this study, subjects were permitted to take additional inhalations as required; however, the total number of inhalations was not to exceed 12 in 24 hours. Subjects were to “test-spray” three times before using for the first time and in cases where the aerosol had not been used for more than 24 hours. […]
compound,measurement,setting,value
"CCOc1ccc(-c2nc(-c3cccc(C(=O)O)n3)cs2)cc1OCC [Tetomilast, 2-(3,4-diethoxyphenyl)-4-(2-carboxy-6-pyridyl)thiazole]","Estimated Treatment Effect, change from baseline in FEV1 (tetomilast versus placebo)","Day 8/23, 5 min postdose",0.02 L
same,"Estimated Treatment Effect, change from baseline in FVC (tetomilast versus placebo)","Day 8/23, 5 min postdose",0.06 L
same,LS Mean change from baseline in FEV1 (repeated measures ANOVA),"Day 8/23, 5 min postdose",0.19 L
same,LS Mean change from baseline in FVC (repeated measures ANOVA),"Day 8/23, 5 min postdose",0.31 L
same,Mean (SD) change from baseline in FEV1,"Day 8/23, 5 min postdose",0.19 (0.19) L
same,Mean (SD) change from baseline in FVC,"Day 8/23, 5 min postdose",0.30 (0.28) L
same,"Estimated Treatment Effect, change from baseline in FEV1 (tetomilast versus placebo)","Day 8/23, 25 min postdose",0.06 L
same,"Estimated Treatment Effect, change from baseline in FVC (tetomilast versus placebo)","Day 8/23, 25 min postdose",0.11 L
same,LS Mean change from baseline in FEV1 (repeated measures ANOVA),"Day 8/23, 25 min postdose",0.21 L
same,LS Mean change from baseline in FVC (repeated measures ANOVA),"Day 8/23, 25 min postdose",0.31 L
same,Mean (SD) change from baseline in FEV1,"Day 8/23, 25 min postdose",0.21 (0.20) L
same,Mean (SD) change from baseline in FVC,"Day 8/23, 25 min postdose",0.31 (0.38) L
same,"Estimated Treatment Effect, change from baseline in FEV1 (tetomilast versus placebo)","Day 8/23, 35 min postdose",0.05 L
same,"Estimated Treatment Effect, change from baseline in FVC (tetomilast versus placebo)","Day 8/23, 35 min postdose",0.09 L
same,LS Mean change from baseline in FEV1 (repeated measures ANOVA),"Day 8/23, 35 min postdose",0.26 L
same,LS Mean change from baseline in FVC (repeated measures ANOVA),"Day 8/23, 35 min postdose",0.41 L
same,Mean (SD) change from baseline in FEV1,"Day 8/23, 35 min postdose",0.26 (0.18) L
same,Mean (SD) change from baseline in FVC,"Day 8/23, 35 min postdose",0.41 (0.34) L
same,"Estimated Treatment Effect, change from baseline in FEV1 (tetomilast versus placebo)","Day 8/23, 55 min postdose",0.08 L
same,"Estimated Treatment Effect, change from baseline in FVC (tetomilast versus placebo)","Day 8/23, 55 min postdose",0.15 L
same,LS Mean change from baseline in FEV1 (repeated measures ANOVA),"Day 8/23, 55 min postdose",0.28 L
same,LS Mean change from baseline in FVC (repeated measures ANOVA),"Day 8/23, 55 min postdose",0.39 L
same,Mean (SD) change from baseline in FEV1,"Day 8/23, 55 min postdose",0.28 (0.19) L
same,Mean (SD) change from baseline in FVC,"Day 8/23, 55 min postdose",0.38 (0.31) L
same,"Estimated Treatment Effect, change from baseline in FEV1 (tetomilast versus placebo)","Day 8/23, 65 min postdose",0.08 L
same,"Estimated Treatment Effect, change from baseline in FVC (tetomilast versus placebo)","Day 8/23, 65 min postdose",0.18 L
same,LS Mean change from baseline in FEV1 (repeated measures ANOVA),"Day 8/23, 65 min postdose",0.32 L
same,LS Mean change from baseline in FVC (repeated measures ANOVA),"Day 8/23, 65 min postdose",0.51 L
same,Mean (SD) change from baseline in FEV1,"Day 8/23, 65 min postdose",0.32 (0.19) L
same,Mean (SD) change from baseline in FVC,"Day 8/23, 65 min postdose",0.52 (0.37) L
same,"Estimated Treatment Effect, change from baseline in FEV1 (tetomilast versus placebo)","Day 8/23, 85 min postdose",0.07 L
same,"Estimated Treatment Effect, change from baseline in FVC (tetomilast versus placebo)","Day 8/23, 85 min postdose",0.13 L
same,LS Mean change from baseline in FEV1 (repeated measures ANOVA),"Day 8/23, 85 min postdose",0.33 L
same,LS Mean change from baseline in FVC (repeated measures ANOVA),"Day 8/23, 85 min postdose",0.48 L
same,Mean (SD) change from baseline in FEV1,"Day 8/23, 85 min postdose",0.33 (0.19) L
same,Mean (SD) change from baseline in FVC,"Day 8/23, 85 min postdose",0.47 (0.37) L
same,"Estimated Treatment Effect, change from baseline in FEV1 (tetomilast versus placebo)","Day 8/23, 95 min postdose",0.07 L
same,"Estimated Treatment Effect, change from baseline in FVC (tetomilast versus placebo)","Day 8/23, 95 min postdose",0.19 L
same,LS Mean change from baseline in FEV1 (repeated measures ANOVA),"Day 8/23, 95 min postdose",0.36 L
same,LS Mean change from baseline in FVC (repeated measures ANOVA),"Day 8/23, 95 min postdose",0.55 L
same,Mean (SD) change from baseline in FEV1,"Day 8/23, 95 min postdose",0.36 (0.19) L
same,Mean (SD) change from baseline in FVC,"Day 8/23, 95 min postdose",0.55 (0.40) L
same,"Estimated Treatment Effect, change from baseline in FEV1 (tetomilast versus placebo)","Day 8/23, 115 min postdose",0.07 L
same,"Estimated Treatment Effect, change from baseline in FVC (tetomilast versus placebo)","Day 8/23, 115 min postdose",0.18 L
same,LS Mean change from baseline in FEV1 (repeated measures ANOVA),"Day 8/23, 115 min postdose",0.35 L
same,LS Mean change from baseline in FVC (repeated measures ANOVA),"Day 8/23, 115 min postdose",0.54 L
same,Mean (SD) change from baseline in FEV1,"Day 8/23, 115 min postdose",0.35 (0.18) L
same,Mean (SD) change from baseline in FVC,"Day 8/23, 115 min postdose",0.53 (0.44) L
same,"Estimated Treatment Effect, change from baseline in FEV1 (tetomilast versus placebo)","Day 8/23, 175 min postdose",0.09 L
same,"Estimated Treatment Effect, change from baseline in FVC (tetomilast versus placebo)","Day 8/23, 175 min postdose",0.15 L
same,LS Mean change from baseline in FEV1 (repeated measures ANOVA),"Day 8/23, 175 min postdose",0.36 L
same,LS Mean change from baseline in FVC (repeated measures ANOVA),"Day 8/23, 175 min postdose",0.53 L
same,Mean (SD) change from baseline in FEV1,"Day 8/23, 175 min postdose",0.36 (0.21) L
same,Mean (SD) change from baseline in FVC,"Day 8/23, 175 min postdose",0.52 (0.36) L
same,"Estimated Treatment Effect, change from baseline in FEV1 (tetomilast versus placebo)","Day 8/23, 235 min postdose",0.07 L
same,"Estimated Treatment Effect, change from baseline in FVC (tetomilast versus placebo)","Day 8/23, 235 min postdose",0.09 L
same,LS Mean change from baseline in FEV1 (repeated measures ANOVA),"Day 8/23, 235 min postdose",0.34 L
same,LS Mean change from baseline in FVC (repeated measures ANOVA),"Day 8/23, 235 min postdose",0.42 L
same,Mean (SD) change from baseline in FEV1,"Day 8/23, 235 min postdose",0.34 (0.25) L
same,Mean (SD) change from baseline in FVC,"Day 8/23, 235 min postdose",0.42 (0.48) L
same,"Estimated Treatment Effect, change from baseline in FEV1 (tetomilast versus placebo)","Day 8/23, 295 min postdose",0.05 L
same,"Estimated Treatment Effect, change from baseline in FVC (tetomilast versus placebo)","Day 8/23, 295 min postdose",0.19 L
same,LS Mean change from baseline in FEV1 (repeated measures ANOVA),"Day 8/23, 295 min postdose",0.25 L
same,LS Mean change from baseline in FVC (repeated measures ANOVA),"Day 8/23, 295 min postdose",0.38 L
same,Mean (SD) change from baseline in FEV1,"Day 8/23, 295 min postdose",0.25 (0.29) L
same,Mean (SD) change from baseline in FVC,"Day 8/23, 295 min postdose",0.37 (0.49) L
same,"Estimated Treatment Effect, change from baseline in FEV1 (tetomilast versus placebo)","Day 8/23, 355 min postdose",0.13 L
same,"Estimated Treatment Effect, change from baseline in FVC (tetomilast versus placebo)","Day 8/23, 355 min postdose",0.24 L
same,LS Mean change from baseline in FEV1 (repeated measures ANOVA),"Day 8/23, 355 min postdose",0.25 L
same,LS Mean change from baseline in FVC (repeated measures ANOVA),"Day 8/23, 355 min postdose",0.34 L
same,Mean (SD) change from baseline in FEV1,"Day 8/23, 355 min postdose",0.25 (0.24) L
same,Mean (SD) change from baseline in FVC,"Day 8/23, 355 min postdose",0.34 (0.39) L
same,"effect on inhaled albuterol response (FEV1, FVC), exploratory repeated measures analysis","inhaled albuterol combined with tetomilast versus inhaled albuterol alone, Day 8/23",possible potentiation of the effect of inhaled albuterol
same,"FEV1 steady-state (predose) baseline value, Mean (SD)","predose Day 8/23, on tetomilast 50 mg QD, prior to inhaled albuterol",1.40 (0.61) L
